In BindingDB's records for doi:10.1016/j.bmcl.2019.126678 (Vanderbilt University, 2019):

Assays:
[1] = target: Muscarinic acetylcholine receptor M4 (human) (UniProt P08173); assay: Positive allosteric modulation of human M4 receptor expressed in CHO cells co-expressing Gqi5 assessed as increase in acetylcholine-induced calcium mobilization incubated with EC20 ACh for 140 secs and subsequent EC80 Ach addition further incubated for 120 secs by Fluo-4-AM dye based fluorescence assay
[2] = target: Muscarinic acetylcholine receptor M4 (rat); assay: Positive allosteric modulation of rat M4 receptor expressed in CHO cells co-expressing Gqi5 assessed as increase in acetylcholine-induced calcium mobilization incubated with EC20 ACh for 140 secs and subsequent EC80 Ach addition further incubated for 120 secs by Fluo-4-AM dye based fluorescence assay

Muscarinic acetylcholine receptor M4 (human), sequence (P08173 whole entry, looked up): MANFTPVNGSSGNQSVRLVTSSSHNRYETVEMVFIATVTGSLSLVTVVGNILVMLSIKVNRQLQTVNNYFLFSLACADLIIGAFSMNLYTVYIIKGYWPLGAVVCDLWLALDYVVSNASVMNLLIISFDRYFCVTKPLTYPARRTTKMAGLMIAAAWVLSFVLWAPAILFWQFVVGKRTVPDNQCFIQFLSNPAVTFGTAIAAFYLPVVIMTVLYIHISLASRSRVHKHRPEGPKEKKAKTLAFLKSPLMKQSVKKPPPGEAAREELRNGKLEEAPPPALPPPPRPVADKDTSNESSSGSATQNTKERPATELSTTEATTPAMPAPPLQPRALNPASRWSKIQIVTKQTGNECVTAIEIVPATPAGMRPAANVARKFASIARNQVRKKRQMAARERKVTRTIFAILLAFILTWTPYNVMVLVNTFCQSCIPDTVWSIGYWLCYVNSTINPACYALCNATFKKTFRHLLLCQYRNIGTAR

EC50 [1] [nM]	EC50 [2] [nM]	Compound
1220	–	Cc1nnc2ccc(C(=O)NC3CN(c4ncccc4F)C3)cc2c1C
1030	–	Cc1nnc2ccc(C(=O)NC3CN(c4ccc(C#N)cn4)C3)cc2c1C
1320	–	Cc1nnc2ccc(C(=O)NC3CN(c4cccc(Cl)n4)C3)cc2c1C
668	–	Cc1nnc2ccc(C(=O)NC3CN(c4cccc(F)n4)C3)cc2c1C
304	138	Cc1nnc2ccc(C(=O)NC3CN(c4ncc(C#N)cc4Cl)C3)cc2c1C
952	–	Cc1nnc2ccc(C(=O)NC3CN(c4ncccc4Cl)C3)cc2c1C
1270	–	Cc1nnc2ccc(C(=O)NC3CN(c4ccc(Cl)cn4)C3)cc2c1C

The remaining lines, values behind:

Compound	EC50 [1] [nM]	EC50 [2] [nM]
Cc1nnc2ccc(C(=O)NC3CN(c4ccc(F)c(F)c4)C3)cc2c1C	737	–
Cc1nnc2ccc(C(=O)NC3CN(c4ncc(C(F)(F)F)cc4Cl)C3)cc2c1C	2630	–
Cc1nnc2ccc(C(=O)NC3CN(c4ncc(C5CC5)cc4Cl)C3)cc2c1C	1390	–
Cc1nnc2ccc(C(=O)NC3CN(c4ncc(F)cc4Cl)C3)cc2c1C	464	174
Cc1nnc2ccc(C(=O)NC3CN(c4ncc(C(F)(F)F)cn4)C3)cc2c1C	> 10000	–
Cc1nnc2ccc(C(=O)NC3CN(c4ncc(OC(C)C)cn4)C3)cc2c1C	3200	–
Cc1nnc2ccc(C(=O)NC3CN(c4cc(Cl)ncc4Cl)C3)cc2c1C	116	230
Cc1nnc2ccc(C(=O)NC3CN(c4cccc(C(F)(F)F)n4)C3)cc2c1C	3360	–
Cc1nnc2ccc(C(=O)NC3CN(c4cnc(C5CC5)cn4)C3)cc2c1C	2510	–
COc1cc(N2CC(NC(=O)c3ccc4nnc(C)c(C)c4c3)C2)c(Cl)cn1	373	356
Cc1nnc2ccc(C(=O)NC3CN(c4ccc(OC(F)F)nc4)C3)cc2c1C	1460	–
Cc1nnc2ccc(C(=O)NC3CN(c4ncc(Cl)cc4F)C3)cc2c1C	648	82
